The assay has as its target recombinant sEH (soluble epoxide hydrolase, EPHX2) (Homo sapiens (Human), UniProt P34913). The assay is described as follows: biochemical fluorometric sEH inhibition assay with Phome substrate. To be noted: recombinant sEH purified from Sf9 insect cells, 2 nM sEH, 5 μM Phome, 60 minutes at 30° C. The protocol:
Compounds were tested in a biochemical screening assay using recombinant sEH purified from Sf9 insect cells and an artificial substrate, (3-phenyl-oxiranyl)-acetic acid cyano-(6-methoxy-naphtalen-2-yl)-methyl ester, Phome. The biochemical assay was performed in analogy to a fluorometric described in the literature (P. D. Jones et al., Anal. Biochem. 2005, 343, 66-75). The assay principle bases on the sEH-catalyzed hydrolysis of an artificial α-cyano-ester substrate. O-deacetylation liberates a cyanohydrin intermediate that rapidly decomposes to the highly fluorescent 6-methoxy-2-naphtaldehyde. To discriminate sample autofluorescence, the assay was carried out as a kinetic measurement with two time points. The first measurement is performed immediately before addition of the substrate and the […] measurement is done after completion of the assay. The assay format is either in 96- or in 384-well format.
Details of the assay using a 96-well plate format are described below. 40 μl recombinant sEH enzyme and 5 μl test compound are pre-incubated for 15 minutes at 30° C. Following pre-incubation, the reaction is started by addition of 5 μl Phome. The assay mixture containing 2 nM final sEH concentration, test compound ranging in a concentration from 0.0001-10 μM and 5 μM Phome is incubated for 60 minutes at 30° C.
Fluorescence is measured with any suitable detector for instance a TECAN Safire or Tecan Ultra at […]. % inhibition of recombinant sEH activity is used for calculation of corresponding IC50 values as illustrated and described in the examples.
The NCBI gene bank reference sequence with the accession number NM_001979 for EPHX2/sEH was applied for recombinant protein production:
The following commercially available materials have been used: • Incubation reagent: 25 mM Hepes (Sigma-Aldrich, Cat. No H-3375), 0.01% bovine albumin (Sigma-Aldrich Cat. No PA9205) • Substrate: 3-Phenyl-oxiranyl)-acetic acid cyano-(6-methoxy-naphtalen-2-yl)-methyl ester, Phome (Biozol Cat. No 10003134) • Microtiter plates: 96-well plates (Greiner Cat. No 655180; Costar Cat. No 3915)
Sequence of recombinant sEH (soluble epoxide hydrolase, EPHX2) (P34913 whole entry): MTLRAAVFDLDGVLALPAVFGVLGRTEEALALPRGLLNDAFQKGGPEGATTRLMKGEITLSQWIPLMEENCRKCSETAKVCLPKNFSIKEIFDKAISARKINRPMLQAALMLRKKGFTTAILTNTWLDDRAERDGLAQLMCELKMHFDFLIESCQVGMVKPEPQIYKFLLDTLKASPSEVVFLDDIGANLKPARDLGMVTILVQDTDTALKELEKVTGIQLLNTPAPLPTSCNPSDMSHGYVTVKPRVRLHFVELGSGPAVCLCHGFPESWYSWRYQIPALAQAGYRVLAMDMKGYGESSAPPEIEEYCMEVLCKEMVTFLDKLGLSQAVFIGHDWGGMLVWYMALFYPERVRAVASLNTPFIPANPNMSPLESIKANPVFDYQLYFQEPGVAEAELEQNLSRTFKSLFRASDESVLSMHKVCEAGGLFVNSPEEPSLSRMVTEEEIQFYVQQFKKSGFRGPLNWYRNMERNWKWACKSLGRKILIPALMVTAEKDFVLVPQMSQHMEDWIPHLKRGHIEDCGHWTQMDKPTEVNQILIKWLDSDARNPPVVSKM
In general, IC50 refers to the concentration at which inhibition is half-maximal. For `O=C(NCc1ccccc1OC(F)(F)F)c1ccc(CN2CCN(c3ccc(CO)cn3)CC2)s1` [Example 87], the IC50 was 2.41 nM. As for `Cc1c(C(=O)N2CCN(Cc3ccc(C(=O)NCCC(C)C)s3)CC2)oc2ccc(Br)cc12` [Example 12], the figure is 25.4 nM; as for `CSCCC(=O)N1CCN(Cc2ncc(C(=O)NCc3ccc(Cl)cc3Cl)s2)CC1` [Example 164], 11.4 nM; as for `O=C(NCc1ccccc1C(F)(F)F)c1ccc(CN2CCN(C(=O)C3Cc4ccccc43)CC2)s1` (stereo not shown) [Example 6], 0.528 nM. The result for `O=C(NCc1ccc(Cl)cc1Cl)c1ccc(CN2CCN(C(=O)c3cccnc3)CC2)s1` [Example 89] reads 1.4 nM.

On to `CN1CC(C(=O)N2CCN(Cc3ncc(C(=O)NCc4ccc(Cl)cc4Cl)s3)CC2)CC1=O` (stereo not shown) [Example 197], for which the IC50 turned out to be 49.5 nM. In the case of `CC(C)[C@@H](O)C(=O)N1CCN(Cc2ccc(C(=O)NCc3ccccc3OC(F)(F)F)s2)CC1` [Example 101], the concentration for half-maximal inhibition (IC50) is 2.28 nM.

As to `O=C(NCc1ccccc1C(F)(F)F)c1ccc(CN2CCN(C(=O)c3c(Cl)cccc3Cl)CC2)s1` [Example 81], the 50% inhibitory concentration (IC50) was 2.36 nM.

On to `COc1ccc(CNC(=O)c2ccc(CN3CCN(C)C(=O)C3)s2)c(OC(F)(F)F)c1` [Example 134], for which the IC50 was determined as 2.15 nM. Regarding `Cc1noc(C)c1C(=O)N1CCN(Cc2ccc(C(=O)NCc3ccccc3C(F)(F)F)s2)CC1` [Example 88], the concentration for half-maximal inhibition (IC50) amounted to 1.44 nM. Consider `O=C(NCc1ccccc1C(F)(F)F)c1ccc(CN2CCN(C(=O)COc3ccccc3)CC2)s1` [Example 17], for which the half-maximal inhibitory concentration (IC50) was 0.699 nM. The result for `O=C(NCc1ccc(Cl)cc1Cl)c1cnc(CN2CCN(C(=O)c3ccc[nH]c3=O)CC2)s1` [Example 178] reads 58.6 nM. The result for `COCCC(=O)N1CCN(Cc2ncc(C(=O)NCc3ccc(Cl)cc3Cl)s2)CC1` [Example 173] reads 33.4 nM; that for `CC[C@@H](O)C(=O)N1CCN(Cc2ncc(C(=O)NCc3ccc(Cl)cc3Cl)s2)CC1` [Example 179], 24.1 nM. In the case of `CCC(C)(O)C(=O)N1CCN(Cc2ncc(C(=O)NCc3ccc(Cl)cc3Cl)s2)CC1` (stereo not shown) [Example 167], the concentration for half-maximal inhibition (IC50) turned out to be 12.2 nM. As for `Cc1cccnc1N1CCN(Cc2ccc(C(=O)NCc3ccc(Cl)cc3Cl)s2)CC1=O` [Example 105], the figure is 2.33 nM.

Regarding `Cc1cc(=O)oc(C)c1C(=O)N1CCN(Cc2ccc(C(=O)NCc3ccccc3OC(F)F)s2)CC1` [Example 150], the concentration for half-maximal inhibition (IC50) was 1.87 nM. As for `COc1ncccc1C(=O)N1CCN(Cc2ccc(C(=O)NCc3ccccc3C(F)(F)F)s2)CC1` [Example 57], the figure is 1.13 nM; as for `O=C(NCc1ccc(Cl)cc1Cl)c1cnc(CN2CCN(C(=O)CO)CC2)s1` [Example 181], 52.1 nM. As for `O=C(NCc1ccccc1OC(F)(F)F)c1ccc(CN2CCN(C(=O)CCO)CC2)s1` [Example 106], the figure is 2.18 nM. The result for `Cc1cc(=O)oc(C)c1C(=O)N1CCN(Cc2ccc(C(=O)NCc3ccc(Cl)cc3F)s2)CC1` [Example 60, 5-[4-(2,4-Dimethyl-6-oxo-6H-pyran-3-carbonyl)-piperazin-1-ylmethyl]-thiophene-2-carboxylic acid 4-chloro-2-fluoro-benzylamide] reads 1.1 nM; that for `NC1(C(=O)N2CCN(Cc3ccc(C(=O)NCc4ccccc4OC(F)(F)F)s3)CC2)CCOCC1` [Example 145], 1.88 nM; that for `CO[C@H](C)C(=O)N1CCN(Cc2ncc(C(=O)NCc3ccc(Cl)cc3Cl)s2)CC1` [Example 204], 18.8 nM. Take `O=C(NCc1ccc(Cl)cc1Cl)c1cnc(CN2CCN(C(=O)c3cccc(O)n3)CC2)s1` [Example 175]: the half-inhibitory concentration (IC50) was found to be 20.4 nM. The result for `CC(C(=O)N1CCN(Cc2ccc(C(=O)NCc3ccc(Cl)cc3Cl)s2)CC1)c1ccccc1` (stereo not shown) [Example 63] reads 1.21 nM.

Consider `Cc1cccc(C(=O)N2CCN(Cc3ccc(C(=O)NCc4ccccc4OC(F)(F)F)s3)CC2)n1` [Example 72], for which the IC50 came to 2.59 nM. As for `COc1cccc(C(=O)N2CCN(Cc3ncc(C(=O)NCc4ccc(Cl)cc4Cl)s3)CC2)n1` [Example 202], the figure is 13.3 nM. The result for `Cc1cc(=O)oc(C)c1C(=O)N1CCN(Cc2ccc(C(=O)NCc3ccccc3C(F)(F)F)s2)CC1` [Example 36] reads 0.906 nM. As for `Cc1cccnc1N1CCN(Cc2ccc(C(=O)NCc3ccccc3OC(F)(F)F)s2)CC1=O` [Example 112], the figure is 1.64 nM; as for `O=C(NCc1ccc(Cl)cc1Cl)c1ccc(CN2CCN(C3CCC3)CC2)s1` [Example 27], 0.803 nM; as for `N#CCC(=O)N1CCN(Cc2ncc(C(=O)NCc3ccc(Cl)cc3Cl)s2)CC1` [Example 195], 73.6 nM. `O=C(NCc1ccccc1C(F)(F)F)c1ccc(CN2CCN(C(=O)c3cccnc3)CC2)s1` [Example 4]: the IC50 stood at 0.168 nM.

With `O=C(NCc1ccccc1OC(F)(F)F)c1ccc(CN2CCN(C(=O)C3CCOC3)CC2)s1` (stereo not shown) [Example 55], the half-inhibitory concentration (IC50) amounted to 1.05 nM.

On to `Cc1cccc(C(=O)N2CCN(Cc3ncc(C(=O)NCc4ccc(Cl)cc4Cl)s3)CC2)n1` [Example 174], for which the IC50 amounted to 14.8 nM. As for `CC(C(=O)N1CCN(Cc2ccc(C(=O)NCc3ccccc3C(F)(F)F)s2)CC1)c1ccccc1` (stereo not shown) [Example 98], the figure is 1.52 nM. On to `CN1CC(C(=O)N2CCN(Cc3ccc(C(=O)NCc4ccccc4OC(F)(F)F)s3)CC2)CC1=O` (stereo not shown) [Example 44], for which the IC50 amounted to 2.72 nM. As for `COCCCC(=O)N1CCN(Cc2ccc(C(=O)NCc3ccccc3OC(F)(F)F)s2)CC1` [Example 140], the figure is 1.81 nM; as for `COCC(=O)N1CCN(Cc2ncc(C(=O)NCc3ccc(Cl)cc3Cl)s2)CC1` [Example 192], 35.3 nM. Consider `NC(CF)C(=O)N1CCN(Cc2ccc(C(=O)NCc3ccc(Cl)cc3Cl)s2)CC1` (stereo not shown) [Example 48], for which the IC50 stood at 2.69 nM. On to `Cc1cc(=O)oc(C)c1C(=O)N1CCN(Cc2ccc(C(=O)NCc3ccc(C#N)cc3Cl)s2)CC1` [Example 80], for which the IC50 came out at 2.53 nM.

Take `O=C(NCc1ccccc1C(F)(F)F)c1ccc(CN2CCN(C(=O)c3ccccn3)CC2)s1` [Example 16]: the IC50 worked out at 0.534 nM. The result for `Cc1cc(C(=O)NCc2ccccc2OC(F)(F)F)sc1CN1CCN(C(=O)c2c(C)cc(=O)oc2C)CC1` [Example 148] reads 1.87 nM. As for `CSCCC(=O)N1CCN(Cc2ccc(C(=O)NCc3ccccc3OC(F)(F)F)s2)CC1` [Example 137], the figure is 1.76 nM.

Consider `CC1(C)CC[C@@H](C(=O)N2CCN(Cc3ccc(C(=O)NCc4ccccc4OC(F)(F)F)s3)CC2)N1` [Example 86], for which the half-inhibitory concentration (IC50) was determined as 2.38 nM. As for `Cn1ncc(Br)c1C(=O)N1CCN(Cc2ccc(C(=O)NCc3ccccc3C(F)(F)F)s2)CC1` [Example 52], the figure is 0.955 nM; as for `O=C(NCc1ccc(Cl)cc1Cl)c1cnc(CN2CCN(C(=O)CN3CCCC3=O)CC2)s1` [Example 168], 77.9 nM. The result for `O=C(NCc1ccccc1C(F)(F)F)c1ccc(CN2CCN(C(=O)Cc3ccccc3Cl)CC2)s1` [Example 3] reads 0.407 nM; that for `CC(C)(O)CC(=O)N1CCN(Cc2ncc(C(=O)NCc3ccc(Cl)cc3Cl)s2)CC1` [Example 185], 13.8 nM; that for `Cc1cc(=O)oc(C)c1C(=O)N1CCN(Cc2ccc(C(=O)NCCCn3nc(C(F)(F)F)cc3C)s2)CC1` [Example 11], 2.95 nM. As for `O=C(NCc1ccccc1C(F)(F)F)c1ccc(CN2CCN(C(=O)c3cnn4ccccc34)CC2)s1` [Example 151], the figure is 1.97 nM; as for `COCc1cc(O)nc(N2CCN(Cc3ccc(C(=O)NCc4ccccc4OC(F)(F)F)s3)CC2)n1` [Example 158], 2.04 nM. Take `CCc1oncc1C(=O)N1CCN(Cc2ccc(C(=O)NCc3ccccc3C(F)(F)F)s2)CC1` [Example 117]: the IC50 turned out to be 1.64 nM. Turning to `COc1ccc(CNC(=O)c2ccc(CN3CCN(C(=O)c4c(C)cc(=O)oc4C)CC3)s2)c(C(F)(F)F)c1` [Example 9], the IC50 was 3.06 nM. Regarding `CC1(C)SCN[C@H]1C(=O)N1CCN(Cc2ccc(C(=O)NCc3ccc(Cl)cc3Cl)s2)CC1` [Example 103], the IC50 turned out to be 2.32 nM. The result for `COc1cc(CNC(=O)c2ccc(CN3CCN(C(=O)c4nc(F)ccc4F)CC3)s2)ccn1` [Example 149, 5-[4-(3,6-Difluoro-pyridine-2-carbonyl)-piperazin-1-ylmethyl]-thiophene-2-carboxylic acid (2-methoxy-pyridin-4-ylmethyl)-amide] reads 8.2 nM.

Regarding `Cc1cc(=O)oc(C)c1C(=O)N1CCN(Cc2ccc(C(=O)NCc3cccc(Cl)c3Cl)s2)CC1` [Example 91], the IC50 stood at 1.42 nM. The result for `COCCOCC(=O)N1CCN(Cc2ncc(C(=O)NCc3ccc(Cl)cc3Cl)s2)CC1` [Example 188] reads 15.9 nM. As for `O=C(NCc1ccc(Cl)cc1Cl)c1cnc(CN2CCN(C(=O)CN3C[C@@H](O)CC3=O)CC2)s1` [Example 210], the figure is 52.4 nM.

(Values after US9776991B2, “Thienomethylpiperazine derivatives as inhibitors of soluble epoxide hydrolase” (SANOFI, priority 2013, dated 2017).)
